According to US4110165A, “Process for the production of clavulanic acid” (Beecham Group Limited, priority 1974, dated 1978):
In brackets after ≈: the same amount, converted by molar mass. Counter-ions that a name gives are not always drawn. One block for each molecule: values may come before it.

How the values were obtained:
[1] = tested on: Staphylococcus aureus (Russell); assay: M.I.C. synergism with clavulanic acid methyl ester (Example 32); type: cell-based
Staphylococcus aureus = assay: Antibacterial synergism MIC, microtiter method (Example 42); type: cell-based; conditions: method of Example 42
Escherichia coli 10418 = assay: MIC, method of Example 30 with 1/100 dilution of overnight broth (Example 46)
Klebsiella aerogenes A [2] = assay: Antibacterial synergism MIC, microtiter method (Example 42); type: cell-based; conditions: unit not given; method of Example 42
Proteus mirabilis C889 = assay: M.I.C. synergism with clavulanic acid methyl ester (Example 32); type: cell-based
[3] = tested on: Klebsiella aerogenes E 70; assay: Antibacterial synergism MIC, microtiter method (Example 42); type: cell-based; conditions: unit not given; method of Example 42
Klebsiella aerogenes 62 = assay: as above; type: cell-based; conditions: unit not given; method of Example 42
Bacillus subtilis A = assay: MIC, method of Example 30 with 1/100 dilution of overnight broth (Example 46)
Staph. aureus Oxford = assay: as above; conditions: Staphylococcus aureus
Staph. aureus Russell = assay: as above; conditions: Staphylococcus aureus
bacteria = assay: Tests for antibacterial activity in broth (Example 32); type: cell-based
Klebsiella aerogenes A [4] = assay: Growth inhibition, penicillins with and without synergist; type: cell-based
Stability in human blood = type: in vitro ADME
[5] = Blood and tissue levels in female mice; type: in vivo; conditions: oral administration of 100 mg/kg

SMILES: O=C(Cc1cccs1)N[C@@H]1C(=O)N2C(C(=O)[O-])=C(C[n+]3ccccc3)CS[C@H]12 [Cephaloridine, cephaloridine]
M.I.C. in the presence of 1.0 μg/ml. clavulanic acid methyl ester [1]: < 0.03 µg/mL
Minimum Inhibitory Concentration in presence of 5μg/ml clavulanic acid sodium salt (Staphylococcus aureus): 3.7 µg/mL

MIC (Escherichia coli 10418): 125 µg/mL (≈ 432 µM)
SMILES: O=C(OCc1ccccc1)[C@H]1/C(=C/CO)O[C@@H]2CC(=O)N21 [clavulanic acid benzyl ester, benzyl ester of 3-(β-hydroxyethylidine)-7-oxo-4-oxa-1-azabicyclo [3,2,0]heptane-2-carboxylic acid]

SMILES: CC1(C)S[C@@H]2[C@H](NC(=O)[C@H](N)c3ccccc3)C(=O)N2[C@H]1C(=O)O [Ampicillin, ampicillin]
M.I.C., Ampicillin + 5 μg/ml of Benzyl Ester of clavulanic acid (Klebsiella aerogenes A [2]): 1.9
M.I.C., Ampicillin + 5 μg/ml of Methyl Ester of clavulanic acid (Klebsiella aerogenes A [2]): 1.9
M.I.C. in the presence of 5 μg/ml. clavulanic acid methyl ester (Proteus mirabilis C889): 31 µg/mL
M.I.C. in the presence of 1.0 μg/ml. clavulanic acid methyl ester [1]: < 0.4 µg/mL
M.I.C., Ampicillin + 5 μg/ml of Benzyl Ester of clavulanic acid [3]: 3.9
M.I.C., Ampicillin + 5 μg/ml of Methyl Ester of clavulanic acid [3]: 3.9
M.I.C., Ampicillin + 5 μg/ml of Benzyl Ester of clavulanic acid (Klebsiella aerogenes 62): 3.9
M.I.C., Ampicillin + 5 μg/ml of Methyl Ester of clavulanic acid (Klebsiella aerogenes 62): 3.9

MIC (Bacillus subtilis A): 125 µg/mL (≈ 377 µM)
MIC (Escherichia coli 10418): 125 µg/mL (≈ 377 µM)
MIC (Staph. aureus Oxford): 31 µg/mL (≈ 93.6 µM)
MIC (Staph. aureus Russell): 15 µg/mL (≈ 45.3 µM)
SMILES: O=C1OC(OC(=O)[C@H]2/C(=C/CO)O[C@@H]3CC(=O)N32)c2ccccc21 (some centres unmarked) [Phthalidyl ester, Clavulanic Acid Phthalide Esters]

SMILES: COC(=O)[C@H]1/C(=C/CO)O[C@@H]2CC(=O)N21 [clavulanic acid methyl ester]
antibacterial activity in broth (bacteria): broad spectrum activity but of a lower order than shown by clavulanic acid

SMILES: CC1(C)S[C@@H]2[C@H](NC(=O)Cc3ccccc3)C(=O)N2[C@H]1C(=O)O [Benzylpenicillin, benzylpenicillin]
concentration inhibiting growth when 5 μg/ml. of clavulanic acid is also present (Klebsiella aerogenes A [4]): less than 12.5 μg/ml.

SMILES: O=C(O)[C@H]1/C(=C/CO)O[C@@H]2CC(=O)N21 [clavulanic acid, Z-(2R,5R)-3-(β-hydroxyethylidene)-7-oxo-4-oxa-1-azabicyclo[3,2,0]heptane-2-carboxylic acid]
stability in human blood (Stability in human blood): high stability

SMILES: O=C(O)[C@H]1/C(=C/CO)O[C@@H]2CC(=O)N21 [clavulanic acid sodium salt, 3-(β-hydroxyethylidine)-7-oxo-4-oxa-1-azabicyclo [3,2,0]heptane-2-carboxylic acid sodium salt]
levels of clavulanic acid after oral administration [5]: useful levels
MIC (Escherichia coli 10418): 125 µg/mL
